Laboratory results: patent US11964943B2, “3,5-diarylidenyl-n-substituted-piperid-4-one-derived inhibitors of Stat3 pathway activity and uses thereof” (priority 2017, dated 2024)
Entries after “also recorded” stand apart in the source; their conditions may differ.

Legend:
Assay type in all cases: cell-based
[1] = system: Stat3, Stat1α, Stat5a and Stat5b; assay: Stat selectivity: immunoblotting and TransAM STAT Family ELISA; details: DU145 cells, 18 h
Method: The Active Motif TransAMX Stat Family ELISA kit was utilized to study the specificity of IE-8 for Stat3, 20 μg of whole cell extract was used and Stat activity was assessed according to the manufacturer's protocol. Briefly, 30 μl of Complete Binding Buffer (provided and supplemented with 2 μl of 1M DTT and 10 μl of Herring sperm DNA per ml of Binding Buffer AM6) was added to each well used. 20 μl of sample (nuclear extract diluted in Complete Lysis Buffer) per well, were used, while Complete Lysis Buffer (provided and supplemented with 1 μl of 1 M DTT and 10 μl of Protease Inhibitor Cocktail per ml of Lysis Buffer AM1) only, was used for blanks. The plate was sealed with the provided adhesive cover and incubated for 1 hour at room temperature, with mild agitation, on a rocking platform. At the end of incubation, the wells were washed 3 times with 200 μl 1× Wash Buffer (provided). 100 μl of one of the diluted Stat antibodies (1:1000 dilution in 1× Antibody binding buffer for the Stat3, Stat1, Stat5A and Stat5B antibodies) were added to all the used wells. […] Absorbance was read on a spectrophotometer immediately thereafter, at 450 nm, with a reference wavelength of 655 nm.
TransAM® STAT Family ELIS Assay. […] 20 μg of whole cell extract was used and STAT activity was assessed according to the manufacturers protocol.

[2] = system: HCT116-oxaliplatin resistant cells; assay: MTT growth inhibition and Chou-Talalay combination index with oxaliplatin; set-up: key to Effect: affected fraction (Fa) from MTT absorbance, 0-1; details: for CI values in combination with oxaliplatin: fixed and non-fixed ratio combination treatments, in many instances
Method: The software Calcusyn was utilized for analysis of drug interactions using the Chou-Talalay combination index method (Chou, T.-C. Drug Combination Studies and Their Synergy Quantification Using the Chou-Talalay Method. [Cancer Res. 70, 440-446 (2010)]
The affected fractions were calculated from the SRB or MTT assay absorbance values and were registered to derive the respective CI values and isobolograms. A CI value of less than 1 (one) indicates synergy.
MIT assay. Individual drug treatments and combinations were carried out as with the SRB assay. The MTT assay was carried out as previously (see Cytotoxicity studies sections) with the difference that it was completed in 96 h.

[3] = system: HCT116-oxaliplatin resistant spheroids; assay: CellTiter-Glo 3D cell viability assay, HCT116-oxaliplatin resistant spheroids; details: 96 h exposure, 3D CellTiter-Glo
Method: For cell spheroid formation, HCT116-oxaliplatin resistant cells, A2780-cisplatin resistant cells, and HT1080 cells were seeded in Corning® Spheroid opaque-walled 96 well Microplates (ultra-low attachment; Nuclon™ Sphera™, Thermofisher) at densities of 2000 cells/well in 100 μl of cell solution and allowed to grow for 4 days, before any manipulation.
Spheroid cells were treated by adding 100 μl of 2-fold the desired compound concentration and incubated at 37° C. for 96 h. At the end of drug incubation, both the plates and the CellTitre-Glo® reagent (previously thawn overnight in the fridge) were equilibrated at room temperature for at least 30 min. Subsequently, 100 μl of cell solution were carefully removed from each well, without disrupting the spheroid and equal volume of CellTitre-Glo® reagent was added. Cell lysis was performed by vigorously shaking the plate for 5 min. To stabilize the luminescent signal, the plate was incubated in the dark at RT for another 30 min before luminescence was recorded on a plate reader. The cell viability of treated samples was normalised to the untreated controls.
The cytotoxicity studies in spheroids were conducted using the CellTiter-Glo® 3D Cell viability assay (Promega) following the instructions of the manufacturer.

[4] = IE-8 2.0 μM 1 h, then oxaliplatin 0.1 μM 96 h
[5] = IE-8 2.0 μM 1 h, then oxaliplatin 1.0 μM 96 h
[6] = IE-8 2.0 μM 1 h, then oxaliplatin 10.0 μM 96 h
[7] = IE-8 2.0 μM 1 h, then oxaliplatin 20.0 μM 96 h
[8] = IE-8 2.0 μM 1 h, then oxaliplatin 40.0 μM 96 h
[9] = IE-8 2.0 μM 1 h, then oxaliplatin 60.0 μM 96 h
[10] = IE-8 2.0 μM 1 h, then oxaliplatin 80.0 μM 96 h
[11] = IE-8 2.0 μM 1 h, then oxaliplatin 100.0 μM 96 h
[12] = IE-8 2.0 μM 1 h, then oxaliplatin 200.0 μM 96 h
[13] = IE-8 2.5 μM 1 h, then oxaliplatin 0.1 μM 96 h
[14] = IE-8 2.5 μM 1 h, then oxaliplatin 1.0 μM 96 h
[15] = IE-8 2.5 μM 1 h, then oxaliplatin 10.0 μM 96 h
[16] = IE-8 2.5 μM 1 h, then oxaliplatin 20.0 μM 96 h
[17] = IE-8 2.5 μM 1 h, then oxaliplatin 40.0 μM 96 h
[18] = IE-8 2.5 μM 1 h, then oxaliplatin 60.0 μM 96 h
[19] = IE-8 2.5 μM 1 h, then oxaliplatin 80.0 μM 96 h
[20] = IE-8 2.5 μM 1 h, then oxaliplatin 100.0 μM 96 h
[21] = IE-8 2.5 μM 1 h, then oxaliplatin 200.0 μM 96 h
[22] = IE-8 3.0 μM 1 h, then oxaliplatin 0.1 μM 96 h
[23] = IE-8 3.0 μM 1 h, then oxaliplatin 1.0 μM 96 h
[24] = IE-8 3.0 μM 1 h, then oxaliplatin 10.0 μM 96 h
[25] = IE-8 3.0 μM 1 h, then oxaliplatin 20.0 μM 96 h
[26] = IE-8 3.0 μM 1 h, then oxaliplatin 40.0 μM 96 h
[27] = IE-8 3.0 μM 1 h, then oxaliplatin 60.0 μM 96 h
[28] = IE-8 3.0 μM 1 h, then oxaliplatin 80.0 μM 96 h
[29] = IE-8 3.0 μM 1 h, then oxaliplatin 100.0 μM 96 h
[30] = IE-8 3.0 μM 1 h, then oxaliplatin 200.0 μM 96 h
[31] = oxaliplatin 1.0 μM 1 h, 3 h later IE-8 1.0 μM until 96 h
[32] = oxaliplatin 10.0 μM 1 h, 3 h later IE-8 1.0 μM until 96 h
[33] = oxaliplatin 20.0 μM 1 h, 3 h later IE-8 1.0 μM until 96 h
[34] = oxaliplatin 40.0 μM 1 h, 3 h later IE-8 1.0 μM until 96 h
[35] = oxaliplatin 60.0 μM 1 h, 3 h later IE-8 1.0 μM until 96 h
[36] = oxaliplatin 80.0 μM 1 h, 3 h later IE-8 1.0 μM until 96 h
[37] = oxaliplatin 200.0 μM 1 h, 3 h later IE-8 1.0 μM until 96 h
[38] = oxaliplatin 400.0 μM 1 h, 3 h later IE-8 1.0 μM until 96 h

**Q.** `COc1cc(/C=C2\CN(c3ccccc3)C/C(=C\c3cc(OC)c(OC)c(OC)c3)C2=O)cc(OC)c1OC` [IE-8, 3,5-Di(3,4,5-trimethoxybenzylidene)-1-phenylpiperidin-4-one] was tested. Which “selectivity for Stat3 over Stat1, Stat5a and Stat5b” value [1] did it give?
**A.** selectively inhibits pStat3^Tyr705 without inhibiting pStat1^Tyr701 or pStat5^Tyr694; also recorded: selectively inhibit the Stat3-DNA binding activity over that of Stat1α, Stat5a and Stat5b; also recorded: selective for Stat3 over Stat1, Stat5a, and Stat5b

**Q.** And the CI-value [2, 4]?
**A.** 1.558

**Q.** What about the Effect [2, 4] of the same compound?
**A.** 0.1065

**Q.** What about the CI-value [2, 5] of the same compound?
**A.** 1.979

**Q.** What about the Effect [2, 5] of the same compound?
**A.** 0.0954

**Q.** What about the CI-value [2, 6] of the same compound?
**A.** 2.754

**Q.** And the Effect [2, 6]?
**A.** 0.1575

**Q.** And the CI-value [2, 7]?
**A.** 1.58

**Q.** And the Effect [2, 7]?
**A.** 0.315

**Q.** And the CI-value [2, 8]?
**A.** 1.172

**Q.** And the Effect [2, 8]?
**A.** 0.4676

**Q.** What about the CI-value [2, 9] of the same compound?
**A.** 1.135

**Q.** What about the Effect [2, 9] of the same compound?
**A.** 0.5256

**Q.** What about the CI-value [2, 10] of the same compound?
**A.** 0.827

**Q.** And the Effect [2, 10]?
**A.** 0.6386

**Q.** What about the CI-value [2, 11] of the same compound?
**A.** 0.7749

**Q.** What about the Effect [2, 11] of the same compound?
**A.** 0.678

**Q.** What about the CI-value [2, 12] of the same compound?
**A.** 0.4016

**Q.** And the Effect [2, 12]?
**A.** 0.8582

**Q.** And the CI-value [2, 13]?
**A.** 0.721

**Q.** What about the Effect [2, 13] of the same compound?
**A.** 0.5165

**Q.** And the CI-value [2, 14]?
**A.** 1.405

**Q.** What about the Effect [2, 14] of the same compound?
**A.** 0.2143

**Q.** And the CI-value [2, 15]?
**A.** 1.985

**Q.** What about the Effect [2, 15] of the same compound?
**A.** 0.231

**Q.** What about the CI-value [2, 16] of the same compound?
**A.** 1.805

**Q.** What about the Effect [2, 16] of the same compound?
**A.** 0.313

**Q.** And the CI-value [2, 17]?
**A.** 0.8326

**Q.** What about the Effect [2, 17] of the same compound?
**A.** 0.6087

**Q.** What about the CI-value [2, 18] of the same compound?
**A.** 0.8009

**Q.** And the Effect [2, 18]?
**A.** 0.6559

**Q.** And the CI-value [2, 19]?
**A.** 0.5921

**Q.** What about the Effect [2, 19] of the same compound?
**A.** 0.76

**Q.** And the CI-value [2, 20]?
**A.** 0.7993

**Q.** And the Effect [2, 20]?
**A.** 0.7021

**Q.** What about the CI-value [2, 21] of the same compound?
**A.** 0.4777

**Q.** And the Effect [2, 21]?
**A.** 0.855

**Q.** And the CI-value [2, 22]?
**A.** 0.8489

**Q.** And the Effect [2, 22]?
**A.** 0.527

**Q.** What about the CI-value [2, 23] of the same compound?
**A.** 1.924

**Q.** And the Effect [2, 23]?
**A.** 0.171

**Q.** And the CI-value [2, 24]?
**A.** 1.573

**Q.** And the Effect [2, 24]?
**A.** 0.3259

**Q.** What about the CI-value [2, 25] of the same compound?
**A.** 1.453

**Q.** What about the Effect [2, 25] of the same compound?
**A.** 0.4064

**Q.** And the CI-value [2, 26]?
**A.** 0.7871

**Q.** And the Effect [2, 26]?
**A.** 0.6743

**Q.** What about the CI-value [2, 27] of the same compound?
**A.** 0.8214

**Q.** What about the Effect [2, 27] of the same compound?
**A.** 0.6878

**Q.** And the CI-value [2, 28]?
**A.** 0.5584

**Q.** And the Effect [2, 28]?
**A.** 0.8108

**Q.** What about the CI-value [2, 29] of the same compound?
**A.** 0.48

**Q.** What about the Effect [2, 29] of the same compound?
**A.** 0.8527

**Q.** What about the CI-value [2, 30] of the same compound?
**A.** 0.4763

**Q.** What about the Effect [2, 30] of the same compound?
**A.** 0.877

**Q.** And the “CI values in combination with oxaliplatin” value [2]?
**A.** < 1

**Q.** And the CI-value [2, 31]?
**A.** 5.476

**Q.** And the Effect [2, 31]?
**A.** 0.2692

**Q.** And the CI-value [2, 32]?
**A.** 1.482

**Q.** And the Effect [2, 32]?
**A.** 0.6799

**Q.** What about the CI-value [2, 33] of the same compound?
**A.** 0.9954

**Q.** What about the Effect [2, 33] of the same compound?
**A.** 0.7838

**Q.** What about the CI-value [2, 34] of the same compound?
**A.** 0.5439

**Q.** What about the Effect [2, 34] of the same compound?
**A.** 0.8908

**Q.** And the CI-value [2, 35]?
**A.** 0.5183

**Q.** What about the Effect [2, 35] of the same compound?
**A.** 0.897

**Q.** And the CI-value [2, 36]?
**A.** 0.4279

**Q.** What about the Effect [2, 36] of the same compound?
**A.** 0.9184

**Q.** What about the CI-value [2, 37] of the same compound?
**A.** 0.3786

**Q.** What about the Effect [2, 37] of the same compound?
**A.** 0.93

**Q.** What about the CI-value [2, 38] of the same compound?
**A.** 0.488

**Q.** And the Effect [2, 38]?
**A.** 0.9045

**Q.** What about the IC50 [3] of the same compound?
**A.** 8.5 µM

**Q.** What does the source list for “3,5-Di(3,4,5-trimethoxybenzylidene)-1-phenylpiperidin-4-one [IE-8]”?
**A.** selectivity for Stat3 over Stat1, Stat5a and Stat5b [1]: selective for STAT3 over STAT1; CI values in combination with oxaliplatin [2]: < 1; IC50 [3]: 8.5 µM
